Key:
Assay in all cases: cells
SCH = assay type: functional, cell-based, Homo sapiens; settings: Homo sapiens, SCH;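 further: growth inhibition of human SCH cells, read out in a cell viability assay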
Description: SANGER: Inhibition of human SCH cell growth in a cell viability assay.

Lu-65 = assay type: functional, cell-based; settings: Homo sapiens;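 further: growth inhibition of Lu-65 cancer cells, read out by a cell viability assay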
Description: SANGER: Inhibition of human LU-65 cell growth in a cell viability assay.

MFE-280 = assay type: functional, cell-based, Homo sapiens; settings: Homo sapiens, MFE-280;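 further: growth inhibition of MFE-280 cells, determined with a cell viability readout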
Description: SANGER: Inhibition of human MFE-280 cell growth in a cell viability assay.

KM12 = assay type: functional, cell-based, Homo sapiens; settings: Homo sapiens, KM12;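 further: KM12 cell growth inhibition, read out with a cell viability assay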
Description: SANGER: Inhibition of human KM12 cell growth in a cell viability assay.

HN = assay type: functional, cell-based, Homo sapiens; settings: Homo sapiens, HN
Description: SANGER: Inhibition of human HN cell growth in a cell viability assay.

LB2241-RCC = assay type: functional, cell-based, Homo sapiens; settings: Homo sapiens, LB2241-RCC;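 further: cell viability assay measuring how strongly the cultured human renal carcinoma line is prevented from growing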
Description: SANGER: Inhibition of human LB2241-RCC cell growth in a cell viability assay.

no-10 = assay type: functional, cell-based, Homo sapiens; settings: Homo sapiens;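 further: growth inhibition of no-10 cells, read out with a cell viability assay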
Description: SANGER: Inhibition of human no-10 cell growth in a cell viability assay.

CAL-54 = assay type: functional, cell-based, Homo sapiens; settings: Homo sapiens, CAL-54;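 further: growth inhibition of CAL-54 cells, read out by a viability measurement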
Description: SANGER: Inhibition of human CAL-54 cell growth in a cell viability assay.

TGW = assay type: functional, cell-based; settings: Homo sapiens;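 further: growth inhibition of human TGW cells, read out with a cell viability assay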
Description: SANGER: Inhibition of human TGW cell growth in a cell viability assay.

RCC10RGB = assay type: functional, cell-based, Homo sapiens; settings: Homo sapiens, RCC10RGB;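 further: growth inhibition of human RCC10RGB cells, read out by a cell viability assay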
Description: SANGER: Inhibition of human RCC10RGB cell growth in a cell viability assay.

SW1990 = assay type: functional, cell-based, Homo sapiens; settings: Homo sapiens, SW1990;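 further: cell growth inhibition determined with a viability assay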
Description: SANGER: Inhibition of human SW1990 cell growth in a cell viability assay.

KYSE-150 cell line = assay type: functional, cell-based, Homo sapiens; settings: Homo sapiens, KYSE-150;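 further: growth inhibition of human KYSE-150 cells, read out with a cell viability assay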
Description: SANGER: Inhibition of human KYSE-150 cell growth in a cell viability assay.

VM-CUB-1 = assay type: functional, cell-based; settings: Homo sapiens;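 further: cell viability assay measuring growth inhibition of the human VM-CUB-1 cell line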
Description: SANGER: Inhibition of human VM-CUB-1 cell growth in a cell viability assay.

NCI-H226 = assay type: functional, cell-based, Homo sapiens; settings: Homo sapiens, NCI-H226;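 further: cell viability read-out used to gauge growth inhibition of the cells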
Description: SANGER: Inhibition of human NCI-H226 cell growth in a cell viability assay.

CHL-1 = assay type: functional, cell-based, Homo sapiens; settings: Homo sapiens, CHL-1;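 further: cell growth inhibition, read out with a cell viability assay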
Description: SANGER: Inhibition of human CHL-1 cell growth in a cell viability assay.

HuCCT-1 = assay type: functional, cell-based, Homo sapiens, HuCCT1; settings: Homo sapiens, HuCCT-1;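 further: growth inhibition of HuCCT-1 cells, read out by a cell viability assay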
Description: SANGER: Inhibition of human HuCCT1 cell growth in a cell viability assay.

SK-MEL-2 = assay type: functional, cell-based, Homo sapiens; settings: Homo sapiens, SK-MEL-2;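 further: growth inhibition of human SK-MEL-2 cells measured with a cell viability assay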
Description: SANGER: Inhibition of human SK-MEL-2 cell growth in a cell viability assay.

SBC-5 = assay type: functional, cell-based, Homo sapiens; settings: Homo sapiens, SBC-5;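 further: cell viability assay read-out, IC50 is the concentration that inhibits growth of the cells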
Description: SANGER: Inhibition of human SBC-5 cell growth in a cell viability assay.

M14 = assay type: functional, cell-based, Homo sapiens; settings: Homo sapiens, M14;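 further: growth inhibition of M14 cells, read out with a cell viability assay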
Description: SANGER: Inhibition of human M14 cell growth in a cell viability assay.

C32 = assay type: functional, cell-based, Homo sapiens; settings: Homo sapiens, C32;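 further: cell viability assay, with IC50 reflecting inhibition of C32 cell growth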
Description: SANGER: Inhibition of human C32 cell growth in a cell viability assay.

BV-173 = assay type: functional, cell-based; settings: Homo sapiens
Description: SANGER: Inhibition of human BV-173 cell growth in a cell viability assay.

LOX IMVI = assay type: functional, cell-based; settings: Homo sapiens
Description: SANGER: Inhibition of human LOXIMVI cell growth in a cell viability assay.

MHH-PREB-1 = assay type: functional, cell-based; settings: Homo sapiens;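 further: cell viability assay measuring inhibition of proliferation of human MHH-PREB-1 cells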
Description: SANGER: Inhibition of human MHH-PREB-1 cell growth in a cell viability assay.

NCI-H661 = assay type: functional, cell-based, Homo sapiens; settings: Homo sapiens, NCI-H661;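 further: cell viability assay read-out, IC50 being the concentration that inhibits growth of the cells by half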
Description: SANGER: Inhibition of human NCI-H661 cell growth in a cell viability assay.

NUGC-3 = assay type: functional, cell-based, Homo sapiens; settings: Homo sapiens, NUGC-3;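 further: growth inhibition of human NUGC-3 cells, read out with a cell viability assay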
Description: SANGER: Inhibition of human NUGC-3 cell growth in a cell viability assay.

JEG-3 = assay type: functional, cell-based, Homo sapiens; settings: Homo sapiens, JEG-3;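 further: growth inhibition of human JEG-3 cells, read out with a cell viability assay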
Description: SANGER: Inhibition of human JEG-3 cell growth in a cell viability assay.

L-428 = assay type: functional, cell-based; settings: Homo sapiens
Description: SANGER: Inhibition of human L-428 cell growth in a cell viability assay.

SNB-75 = assay type: functional, cell-based, Homo sapiens; settings: Homo sapiens, SNB-75;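 further: cell viability assay measuring growth inhibition of human SNB-75 cells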
Description: SANGER: Inhibition of human SNB75 cell growth in a cell viability assay.

HT-1080 = assay type: functional, cell-based, Homo sapiens; settings: Homo sapiens, HT-1080
Description: SANGER: Inhibition of human HT-1080 cell growth in a cell viability assay.

OVCAR-3 = assay type: functional, cell-based, Homo sapiens; settings: Homo sapiens, OVCAR-3;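 further: growth inhibition of human OVCAR-3 cells, determined by a cell viability assay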
Description: SANGER: Inhibition of human OVCAR-3 cell growth in a cell viability assay.

SW13 = assay type: functional, cell-based, Homo sapiens; settings: Homo sapiens, SW13;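 further: IC50 is inhibition of SW13 cell growth, read out with a cell viability assay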
Description: SANGER: Inhibition of human SW13 cell growth in a cell viability assay.

MDA-MB-157 = assay type: functional, cell-based, Homo sapiens; settings: Homo sapiens, MDA-MB-157
Description: SANGER: Inhibition of human MDA-MB-157 cell growth in a cell viability assay.

SW1573 = assay type: functional, cell-based, Homo sapiens; settings: Homo sapiens, SW1573;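 further: growth inhibition of SW1573 cells, read out with a cell viability assay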
Description: SANGER: Inhibition of human SW1573 cell growth in a cell viability assay.

VMRC-RCZ = assay type: functional, cell-based; settings: Homo sapiens;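 further: growth inhibition measured with a cell viability assay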
Description: SANGER: Inhibition of human VMRC-RCZ cell growth in a cell viability assay.

KALS-1 = assay type: functional, cell-based, Homo sapiens; settings: Homo sapiens, KALS-1;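 further: growth inhibition of KALS-1 cells, determined with a cell viability assay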
Description: SANGER: Inhibition of human KALS-1 cell growth in a cell viability assay.

BFTC-909 = assay type: functional, cell-based, Homo sapiens; settings: Homo sapiens, BFTC-909
Description: SANGER: Inhibition of human BFTC-909 cell growth in a cell viability assay.

DMS-114 = assay type: functional, cell-based, Homo sapiens; settings: Homo sapiens, DMS-114
KU812 cell line = assay type: functional, cell-based; settings: Homo sapiens;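 further: growth inhibition of KU812 cells, read out with a cell viability assay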
Description: SANGER: Inhibition of human KU812 cell growth in a cell viability assay.

CHP-212 = assay type: functional, cell-based, Homo sapiens; settings: Homo sapiens, CHP-212
Description: SANGER: Inhibition of human CHP-212 cell growth in a cell viability assay.

NCI-H1993 = assay type: functional, cell-based, Homo sapiens; settings: Homo sapiens, NCI-H1993;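 further: growth inhibition of the cancer cell line, assessed with a cell viability assay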
Description: SANGER: Inhibition of human NCI-H1993 cell growth in a cell viability assay.

TCC-SUP = assay type: functional, cell-based, Homo sapiens; settings: Homo sapiens, TCC-SUP;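 further: growth inhibition of TCC-SUP cells, read out with a cell viability assay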
Description: SANGER: Inhibition of human TCCSUP cell growth in a cell viability assay.

DSH1 = assay type: functional, cell-based, Homo sapiens; settings: Homo sapiens, DSH1;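 further: growth inhibition of human DSH1 cells, measured with a cell viability readout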
Description: SANGER: Inhibition of human DSH1 cell growth in a cell viability assay.

HCT-116 = assay type: functional, cell-based, Homo sapiens; settings: Homo sapiens, HCT-116
Description: SANGER: Inhibition of human HCT-116 cell growth in a cell viability assay.

ES4 = assay type: functional, cell-based, Homo sapiens; settings: Homo sapiens, ES4;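 further: growth inhibition of human ES4 cells, read out by a cell viability assay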
Description: SANGER: Inhibition of human ES4 cell growth in a cell viability assay.

ES7 = assay type: functional, cell-based, Homo sapiens; settings: Homo sapiens, ES7;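 further: growth inhibition of cultured human ES7 cells, read out as cell viability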
Description: SANGER: Inhibition of human ES7 cell growth in a cell viability assay.

SNU1 = assay type: functional, cell-based; settings: Homo sapiens;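 further: growth inhibition of human NCI-SNU-1 cells, measured with a cell viability assay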
Description: SANGER: Inhibition of human NCI-SNU-1 cell growth in a cell viability assay.

NCI-H1623 = assay type: functional, cell-based, Homo sapiens; settings: Homo sapiens, NCI-H1623;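 further: cell viability assay used as the read-out for growth inhibition of NCI-H1623 cells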
Description: SANGER: Inhibition of human NCI-H1623 cell growth in a cell viability assay.

NCI-H82 = assay type: functional, cell-based; settings: Homo sapiens;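 further: growth inhibition of NCI-H82 cells, measured with a cell viability readout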
Description: SANGER: Inhibition of human NCI-H82 cell growth in a cell viability assay.

MZ2-MEL = assay type: functional, cell-based, Homo sapiens; settings: Homo sapiens, MZ2-MEL;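 further: growth inhibition of MZ2-MEL cells read out with a cell viability assay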
Description: SANGER: Inhibition of human MZ2-MEL cell growth in a cell viability assay.

LB996-RCC = assay type: functional, cell-based; settings: Homo sapiens
Description: SANGER: Inhibition of human LB996-RCC cell growth in a cell viability assay.

SJSA-1 = assay type: functional, cell-based, Homo sapiens; settings: Homo sapiens, SJSA-1;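 further: growth inhibition of human SJSA-1 cells, read out through a cell viability measurement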
Description: SANGER: Inhibition of human SJSA-1 cell growth in a cell viability assay.

no-11 = assay type: functional, cell-based, Homo sapiens; settings: Homo sapiens;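 further: growth inhibition of human NO-11 cells, read out with a cell viability assay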
Description: SANGER: Inhibition of human no-11 cell growth in a cell viability assay.

Measured: IC50

Cc1cnc(-c2cnc(NCCNc3ccc(C#N)cn3)nc2-c2ccc(Cl)cc2Cl)[nH]1 [LADUVIGLUSIB]
588 nM: LOX IMVI
> 2560 nM: all other assays above

C[C@]1(O)C[C@@H](c2nc(-c3ccc4ccc(-c5ccccc5)nc4c3)c3c(N)nccn32)C1 [LINSITINIB]
410 nM: ES4
1040 nM: SJSA-1
> 2560 nM: all other assays above

COc1ccc(C2=N[C@@H](c3ccc(Cl)cc3)[C@@H](c3ccc(Cl)cc3)N2C(=O)N2CCNC(=O)C2)c(OC(C)C)c1 [NUTLIN-3]
4500 nM: MZ2-MEL
3630 nM: LB996-RCC
4530 nM: CAL-54
3300 nM: HCT-116
2430 nM: ES4
5600 nM: C32
1810 nM: CHP-212
3280 nM: SNU1
2840 nM: BV-173
7870 nM: NCI-H661
3860 nM: LOX IMVI
7480 nM: HT-1080
2830 nM: SJSA-1
3660 nM: LB2241-RCC
> 8000 nM: all other assays above

C=CCc1cccc(/C=N/NC(=O)CN2CCN(Cc3ccccc3)CC2)c1O [PAC-1]
1330 nM: L-428
1460 nM: HuCCT-1
2320 nM: SJSA-1
> 2560 nM: all other assays above
